# Columns and labels:
# [1] = Plasma levels in osteoarthritic rats after acute and repeated dosing; type: in vivo, rat; conditions: for Plasma Levels, Chronic: 1 hour after last dose on 12 days of BID dosing; for EC50: Rattus norvegicus, osteoarthritic rats, acute dosing
# Procedure: (§1) In the osteoarthritic pain model, animals were dosed twice-daily for 12 days using a dose that was non-efficacious following a single administration (e.g. 3 μmol/kg p.o. for Compound A). The animals were tested 1 hour after acute dosing (p.o.) and on day 12, 1 hour after oral dosing with either vehicle or the test compound.
# [2] = system: MIA-induced osteoarthritic rats; assay: Osteoarthritic pain model in rats (MIA), hind limb grip force; type: in vivo, rat; conditions: grip force; for ED50: Rattus norvegicus, po, MIA-induced osteoarthritic rats, p.o., acute dosing, read-out: Acute ED50 (μmol/kg; 95% Cl); for % Efficacy at Reduced Dose, Chronic (BID, 12 days) / % Efficacy at Reduced Dose, Acute: relative to naïve group; for % Efficacy at Reduced Dose, Acute: 1 hour after acute dosing; for analgesic effects following repeated dosing vs acute dosing: BID 12 days, reduced dose
# Procedure: Unilateral knee joint osteoarthritis was induced in the rats by a single intraarticular (i.a.) injection of sodium monoiodoacetate (MIA) (Sigma, St. Louis, Mo.) (3 mg in 0.05 mL sterile isotonic saline) into the joint cavity using a 26 G needle under light (2-4%) halothane (Halocarbon Laboratories, River Edge, N.J.) anesthesia [Bove S E, Calcaterra S L, Brooker R M, Huber C M, Guzman R E, Juneau P L, et al. Weight bearing as a measure of disease progression and efficacy of anti-inflammatory compounds in a model of monosodium iodoacetate-induced osteoarthritis. Osteoarthritis Cartilage 2003; 11:821-30]. Following injection, the animals were allowed to recover from the effects of anesthesia (usually 5-10 min) before returning them to their home cages.
# MIA-induced nociception can be assessed by measuring differences in weight bearing (WBD) or decrease in grip force (GF) several days to weeks following MIA injection [Bove S E, Calcaterra S L, Brooker R M, Huber C M, Guzman R E, Juneau P L, et al. Weight bearing as a measure of disease progression and efficacy of anti-inflammatory compounds in a model of monosodium iodoacetate-induced osteoarthritis. Osteoarthritis Cartilage 2003; 11:821-30; Fernihough J, Gentry C, Malcangio M, Fox A, Rediske J, Pellas T, et al. Pain related behaviour in two models of osteoarthritis in the rat knee. Pain 2004; 112:83-93].
# In addition to weight-bearing differences, grip strength was also assessed in osteoarthritic rats approximately 21 days after MIA injection. Measurements of peak hind limb grip force were conducted by recording the maximum compressive force exerted on the hind limb strain gauge setup, in a commercially available grip force measurement system (Columbus Instruments, Columbus, Ohio). During testing, each rat was gently restrained by grasping around its rib cage and then allowed to grasp the wire mesh frame (10-12 cm^2) attached to the strain gauge. The experimenter then moved the animal in a rostral-to-caudal direction until the grip was broken. Each rat was sequentially tested twice at an approximately 2 min interval to obtain a raw mean grip force […]. These raw mean grip force data were in turn converted to a maximum hind limb compressive force (CFmax) (gram force)/kg body weight for each animal. A group of age-matched naïve animals was added to each experiment and the data obtained from the different dose groups for the compound being tested were compared to the naïve group.
# Compound A was dissolved in 100% polyethylene glycol (PEG 400) for oral administration in a 2 mL/kg injection volume. Compounds B, C, and D were dissolved in 10% ethanol, 20% Tween 80 and 70% polyethylene glycol-400 for oral administration in a 2 mL/kg injection volume. All compounds were dosed orally (p.o.) 60 minutes before behavioral testing.
# as §1
# The analgesic responses were shown as % effect relative to the healthy, untreated rats (naïve group).
SMILES,"Plasma Levels, Chronic ([1]; 10 μmol/kg) [at 10 μmol/kg ng/mL]",EC50 [1] [µg/mL],ED50 [2] [µmol/kg],"% Efficacy at Reduced Dose, Chronic (BID, 12 days) ([2]; 10 μmol/kg p.o. BID 12 days) [%]","% Efficacy at Reduced Dose, Acute ([2]; 10 μmol/kg p.o.) [%]",analgesic effects following repeated dosing vs acute dosing [2],"Plasma Levels, Chronic ([1]; 5 μmol/kg) [at 5 μmol/kg ng/mL]","Plasma Levels, Chronic ([1]; 15 μmol/kg) [at 15 μmol/kg ng/mL]","% Efficacy at Reduced Dose, Chronic (BID, 12 days) ([2]; 5 μmol/kg p.o. BID 12 days) [%]","% Efficacy at Reduced Dose, Acute ([2]; 5 μmol/kg p.o.) [%]","% Efficacy at Reduced Dose, Chronic (BID, 12 days) ([2]; 15 μmol/kg p.o. BID 12 days) [%]","% Efficacy at Reduced Dose, Acute ([2]; 15 μmol/kg p.o.) [%]","Plasma Levels, Chronic ([1]; 12 μmol/kg) [at 12 μmol/kg ng/mL]","% Efficacy at Reduced Dose, Chronic (BID, 12 days) ([2]; 12 μmol/kg p.o. BID 12 days) [%]","% Efficacy at Reduced Dose, Acute ([2]; 12 μmol/kg p.o.) [%]"
"CCC1(CC)C[C@@H](NC(=O)Nc2cccc3cnc(C)cc23)c2cc(F)ccc2O1 [D, N-[(4R)-2,2-diethyl-6-fluoro-3,4-dihydro-2H-chromen-4-yl]-N′-(3-methylisoquinolin-5-yl)urea]",217,1,26,62,28,significantly increased,,,,,,,,,
"Cc1nc(Nc2cccc3c2C[C@H](O)CC3)oc1-c1ccc(C(F)(F)F)cc1 [C, (2R)-8-({4-methyl-5-[4-(trifluoromethyl)phenyl]-1,3-oxazol-2-yl}amino)-1,2,3,4-tetrahydronaphthalen-2-ol]",,0.5,14,,,significantly increased,86,150,38,15,83,22,,,
"C[C@@H]1CN(c2ncccc2Cl)CC=C1C(=O)Nc1ccc(C(F)(F)F)cc1 [B, (3S)-3′-chloro-3-methyl-N-[4-(trifluoromethyl)phenyl]-3,6-dihydro-2H-1,2′-bipyridine-4-carboxamide]",,0.915,17,,,significantly increased,,,,,,,760,80,30

# — US20100210682A1, “Repeated Dosing of TRPV1 Antagonists” (ABBOTT LABORATORIES, priority 2009, published 2010)
